Columns and labels:
Assay type in all cases: cell-based, Sprague-Dawley rat
hippocampal slice [1] = assay: Carbachol-induced beta rhythms in hippocampal tissue (64-electrode recording, FFT); details: FIG. 2
Description: (§1) Procedures for the preparation of the recently introduced Multi-Electrode Dish (Panasonic: MED probe) are described by Oka et al., J Neurosci Methods 93: 61-67 (1999). The device has an array of 64 planar microelectrodes, each having a size of 50×50 μm, arranged in an 8 by 8 pattern. Probes used in the experiments described below were medium arrays with 300 μm interelectrode spacing (Panasonic: MED-P530AP).
A 17-25 day old Sprague-Dawley rat was sacrificed by decapitation after anesthesia using halothane (2-Bromo-2-chloro-1,1,1-trifluoroethane, Sigma: B4388), and the whole brain was removed. The brain was immediately soaked in ice-cold, oxygenated preparation buffer of the following composition (in mM): 124 NaCl, 26 NaHCO3, 10 glucose, 3 KCl, 1.25 NaH2PO4, 1.5 CaCl2, 0.5 MgSO4, for approximately 2 minutes. Appropriate portions of the brain were trimmed and placed on the ice-cold stage of a vibrating tissue slicer (Leica: VT-1000S). […]
During electrophysiological recording, the slices on the MED probe were placed in a small CO2 incubator (Yamato: model IC400) at 32° C. […] In this condition, responses were recorded for more than 2 hours. […]
(§2) Spontaneous and evoked field potentials at all 64 sites were recorded simultaneously with the multi-channel recording system (Panasonic: MED64 system) at a 20 kHz sampling rate. […]

hippocampal slice [2] = assay: Evoked responses following Schaffer collateral stimulation in presence and absence of carbachol (field potentials, current source density)
Description: (§3) A 17-25 day old Sprague-Dawley rat was sacrificed by decapitation after anesthesia using halothane (2-Bromo-2-chloro-1,1,1-trifluoroethane, Sigma: B4388), and the whole brain was removed. The brain was immediately soaked in ice-cold, oxygenated preparation buffer of the following composition (in mM): 124 NaCl, 26 NaHCO3, 10 glucose, 3 KCl, 1.25 NaH2PO4, 1.5 CaCl2, 0.5 MgSO4, for approximately 2 minutes. Appropriate portions of the brain were trimmed and placed on the ice-cold stage of a vibrating tissue slicer (Leica: VT-1000S). The stage was immediately filled with both oxygenated and frozen preparation buffers. The thickness of each tissue slice was 350 μm. Each slice was gently taken off the blade using a blunt-end pipette, and immediately soaked in oxygenated preparation buffer for at least 1 hour at room temperature. A slice was then placed on the center of the MED probe, positioned to cover the 8×8 array. After positioning the slice, the MED probe was placed directly in a box filled with 95% O2 and 5% CO2 and allowed to recover and adhere at 32° C. for 1 hour.
(§4) During electrophysiological recording, the slices on the MED probe were placed in a small CO2 incubator (Yamato: model IC400) at 32° C. The slices remained on the MED probe, which was attached to a recording interface, and a moisturized 95% O2 and 5% CO2 gas mixture was blown from above. In this condition, responses were recorded for more than 2 hours.
Carbachol was obtained from Sigma. A carbachol solution was applied to the neuronal samples at known concentrations of either 25 or 50 μM. The lower concentration was used in all except two cases. […] Carbachol solutions were prepared daily from frozen aliquots.
Spontaneous and evoked field potentials at all 64 sites were recorded simultaneously with the multi-channel recording system (Panasonic: MED64 system) at a 20 kHz sampling rate. In the case of the evoked response, one or more than two microelectrodes out of the 64 available were chosen for stimulating. Bipolar constant current pulses (20 to 40 μA, 0.1 msec) were produced by the data acquisition software through the isolator. The stimulating microelectrodes were selected by the 64 switchbox.
The method of continuous, two-dimensional current source density employed has been previously described (Shimono et al., supra). The 2-dimensional array of electrodes allows for simultaneous estimation of current flows in any direction within the plane of the slice. The data was low-pass filtered at 100 Hz and spatially smoothed by a 3×3-weighted average kernel (0 1/8 0, 1/8 1/2 1/8, and 0 1/8 0). […] A limitation of the technique is that only large spatial patterns, with radii≧one-half of the interelectrode distance, can be accurately resolved. Additionally, low-pass filtering removes high-frequency data, limiting the amount of fine detail that can be observed.

hippocampal slice [3] = assay: Network level evoked response to single pulse Schaffer commissural stimulation during carbachol-induced rhythms, multi-electrode dish
Description: as §1
For sufficient adhesion of the slice to the probe, the surface of the MED probe was treated with 0.1% polyethylenimine (Sigma: P-3143) in 25 mM borate buffer, pH 8.4, for 8 hours at room temperature. The probe surface was rinsed 3 times with sterile distilled water. The probe (chamber) was then filled with DMEM/F-12 mixed medium, containing 10% fetal bovine serum (GIBCO: 16141-079) and 10% horse serum (GIBCO: 16050-122), for at least 1 hour at 37° C. DMEM/F-12 mixed medium is a 1:1 mixture of Dulbecco's Modified Eagle's Medium and Ham's F-12 (GIBCO: D/F-12 medium, 12400-024), supplemented with N2 supplement (GIBCO: 17502-014) and hydrocortisone (20 nM, Sigma, H0888).
as §3, §4
Carbachol was obtained from Sigma. […]
as §2

[4] = CA1 apical dendrites, presence of carbachol
[5] = single pulse stimulation with carbachol, eight slices
[6] = 100 μM heptachlor, Schaffer commissural stimulation, FIG. 8

SMILES | dominant frequency of rhythms (normalized power spectra, all 64 electrodes) (hippocampal slice [1]; 25 μM carbachol) | stability of rhythms (hippocampal slice [1]; after carbachol infusion) | intensity of activity (current source density) (hippocampal slice [2]; 25 μM carbachol vs without carbachol, 10 ms after stimulation) | spread of activity (current source density) (hippocampal slice [2]; 25 μM carbachol vs without carbachol, 10 ms after stimulation, particularly field CA3) | start of slow negative going component after stimulation (hippocampal slice [2]; [4]) [ms] | start of slow negative going component after the initial response (hippocampal slice [2]; [4]) | return to baseline after stimulation (hippocampal slice [2]; CA1 stratum radiatum and oriens, carbachol-induced beta waves, FIG. 4) [ms] | return to baseline of positive-going potential (hippocampal slice [2]; CA3 basal dendritic field, carbachol-driven beta rhythms, FIG. 5) | stimulation trials eliciting a sustained network response (hippocampal slice [2]; Schaffer collateral stimulation in the presence of cholinergic rhythms) | frequency of bursts of spikes accompanying the first carbachol dependent slow potential (hippocampal slice [2]; field CA3) | recordings with responses similar to the control responses (hippocampal slice [2]; [5]) | traces with bursts of spikes in CA3 stratum pyramidale and prominent after potentials in CA1 and CA3 (hippocampal slice [2]; [5]) | depolarizing phase of the slow component of the waveform (hippocampal slice [3]; 100 μM heptachlor, FIG. 8) | fast component, corresponding to the traditional evoked response (hippocampal slice [3]; [6]) | slow component of the network complex evoked response (hippocampal slice [3]; [6]) | network level evoked response to single pulse Schaffer commissural stimulation upon infusion (hippocampal slice [3]; figure legends FIGS. 8-11)
C[N+](C)(C)CCOC(N)=O [carbachol] | in the beta range | stable for over two hours | markedly increased | far greater | 25 | about 10 msec | 140 | approximately 125 ms | approximately 70% | 100-200 Hz | 16 of 53 | 37 of 53 | – | – | – | –
ClC1=C(Cl)C2(Cl)C3C(Cl)C=CC3C1(Cl)C2(Cl)Cl (stereo not shown) [heptachlor] | – | – | – | – | – | – | – | – | – | – | – | – | complete elimination | not changed | changed dramatically | changes
